Our source for the EC50 and Emax values is patent publication US12281149B2, “Modulators of G-protein coupled receptors” (priority 2021, dated 2025).

The structures appear in SMILES notation. *1 amine or outer side, *2 acyl side, *3 side chain or, on linkers, in order; H or OH if unused. Where a SMILES comes first, the peptide text is derived from it. Side-chain parts run from the residue outwards. [ ]: non-standard residue; d: D form. The star is where a group is joined. C20 diacid = O=C(O)CCCCCCCCCCCCCCCCCCC(=O)*; γGlu = O=C(O)[C@H](CCC(=O)[*:2])N[*:1]; X65 = CC(C)(C(=O)*)c1cc(N)cc(F)c1; αMeF = C[C@](N)(Cc1ccccc1)C(=O)O; X60 = O=C(C1(c2cccnc2)CCCC1)*; AEEA = NCCOCCOCC(=O)O; Aib = CC(C)(N)C(=O)O; βAla = NCCC(=O)O

Holding throughout (format): cell-based
The target of experiment [1] is T1, GIP receptor (Homo sapiens, UniProt P48546).
T1 sequence (P48546 22-466): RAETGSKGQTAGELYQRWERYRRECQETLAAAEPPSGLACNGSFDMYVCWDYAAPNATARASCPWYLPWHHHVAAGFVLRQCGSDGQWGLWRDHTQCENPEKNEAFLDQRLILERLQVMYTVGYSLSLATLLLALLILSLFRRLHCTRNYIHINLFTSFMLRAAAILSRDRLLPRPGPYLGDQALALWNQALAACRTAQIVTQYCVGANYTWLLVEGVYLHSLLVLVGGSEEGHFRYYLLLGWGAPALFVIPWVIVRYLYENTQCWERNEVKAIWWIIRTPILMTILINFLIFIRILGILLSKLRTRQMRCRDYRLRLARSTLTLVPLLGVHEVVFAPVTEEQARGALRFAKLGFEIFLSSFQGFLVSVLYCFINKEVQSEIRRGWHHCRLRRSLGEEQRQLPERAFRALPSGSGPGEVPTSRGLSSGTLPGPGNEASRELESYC
Put plainly: HitHunter cAMP assay, GIP receptor. The conditions noted are these: for EC50: CHO cells stably expressing GIP receptor, cAMP accumulation, 30 min, read-out: EC50 GIP-1R; for Emax: CHO cells, cAMP, normalized to maximum signal from GIP (high) and DMSO (low), read-out: Emax GIP-1R. Background: Changes in cAMP serve as a functional read-out for many G protein-coupled receptors.
Procedure: CAMP accumulation was measured in Chinese hamster ovary (CHO) cells stably expressing the human GLP-1 receptor or GIP receptor using the HitHunter CAMP Assay for Small Molecules Kit (Eurofins). Briefly, cells were grown in Ham's F12 Nutrient Mix with 10% FBS and lifted with Cell dissociation buffer, Enzyme free, PBS based (ThermoFisher). Cells were pelleted and resuspended in Hank's buffered saline solution with 10 mM Hepes and 625 μM 3-isobutyl-1-methylxanthine. The antibody reagent was then added to cells at a 1:2 ratio and 5 μL of mixture was seeded in 384-well small volume white assay plates, at 10,000 cells/well. Cells were then treated with 50 nl compound in DMSO using an ECHO 550 acoustic dispenser (Labcyte) in a 20-point dose response format in triplicate for 30 min. Cells were the lysed and detection reagents added according to the manufacturer's protocol. After overnight incubation, luminescence was measured using a Perkin Elmer Envision plate reader. Raw data was normalized to the maximum signal from GLP-1 or GIP (high) and DMSO (low). Dose response curves were analyzed using GraphPad Prism 9.0.

Experiment [2] addresses T2, GLP-1 receptor (Homo sapiens, UniProt P43220). Put plainly: PathHunter β-arrestin assay, GLP-1 receptor. Further details: host or cells: PathHunter CHO-K1 GLP1R β-Arrestin Cell Line. The conditions noted are these: β-arrestin-2 recruitment, PathHunter CHO-K1 GLP1R β-Arrestin Cell Line, 90 min at 37° C.; normalized to GLP-1; read-out: GLP-1R β Arrestin EC50. (In general: Arrestin recruitment assays detect the binding of arrestin to an activated receptor.)

The target of experiment [3] is T2, GLP-1 receptor. Put plainly: HitHunter cAMP assay, GLP-1 receptor. The conditions noted are these: for EC50: CHO cells stably expressing human GLP-1 receptor, cAMP accumulation, 30 min, read-out: EC50 GLP-1R; for Emax: CHO cells, cAMP, normalized to maximum signal from GLP-1 (high) and DMSO (low), read-out: Emax GLP-1R.
Experiment [4] concerns the target T1, GIP receptor. Briefly: PathHunter β-arrestin assay, GIP receptor. Further details: host or cells: PathHunter CHO-K1 GIPR β-Arrestin Cell Line. The conditions noted are these: β-arrestin-2 recruitment, PathHunter CHO-K1 GIPR β-Arrestin Cell Line, 90 min at 37° C.; normalized to GIP; read-out: GIPR β Arrestin EC50.

T2 sequence (P43220 24-463): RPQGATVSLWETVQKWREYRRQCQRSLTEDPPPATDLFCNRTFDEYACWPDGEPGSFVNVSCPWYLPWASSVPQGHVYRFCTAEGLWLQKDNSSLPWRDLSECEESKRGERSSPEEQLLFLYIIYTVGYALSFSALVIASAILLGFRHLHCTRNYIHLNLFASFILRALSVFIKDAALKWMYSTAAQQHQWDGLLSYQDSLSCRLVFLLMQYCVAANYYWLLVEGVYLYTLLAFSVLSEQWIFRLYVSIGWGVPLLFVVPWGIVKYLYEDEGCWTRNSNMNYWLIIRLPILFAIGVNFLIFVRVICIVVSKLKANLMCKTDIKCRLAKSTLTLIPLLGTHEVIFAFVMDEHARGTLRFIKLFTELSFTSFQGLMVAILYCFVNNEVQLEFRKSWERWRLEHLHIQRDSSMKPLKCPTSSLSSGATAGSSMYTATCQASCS

For orientation: EC50 means the concentration giving half of the maximal effect. A word on the Emax: it is the size of the effect at its maximum, as opposed to the concentration needed. In the case of `CC[C@H](C)[C@H](NC(=O)[C@H](CO)NC(=O)[C@H](Cc1ccc(O)cc1)NC(=O)[C@H](CC(=O)O)NC(=O)[C@H](CO)NC(=O)[C@@H](NC(=O)[C@H](Cc1ccccc1)NC(=O)[C@@H](NC(=O)CNC(=O)[C@H](CCC(=O)O)NC(=O)CCNC(=O)[C@]1(c2ccccc2)CNC(=O)C1)[C@@H](C)O)[C@@H](C)O)C(=O)N[C@@H](Cc1ccc(O)cc1)C(=O)N[C@@H](CC(C)C)C(=O)N[C@@H](CC(=O)O)C(=O)N[C@@H](CCCCN)C(=O)N[C@@H](CCC(N)=O)C(=O)N[C@@H](C)C(=O)N[C@@H](C)C(=O)NC(C)(C)C(=O)N[C@@H](CCC(=O)O)C(=O)N[C@@H](Cc1ccccc1)C(=O)N[C@H](C(=O)N[C@@H](CC(N)=O)C(=O)N[C@@H](Cc1c[nH]c2ccccc12)C(=O)N[C@@H](CC(C)C)C(=O)N[C@@H](CC(C)C)C(=O)N[C@@H](C)C(=O)NCC(=O)NCC(=O)N1CCC[C@H]1C(=O)N[C@@H](CO)C(=O)N[C@@H](CO)C(=O)NCC(=O)N[C@@H](C)C(=O)N1CCC[C@H]1C(=O)N1CCC[C@H]1C(=O)N1CCC[C@H]1C(=O)N[C@@H](CO)C(=O)N[C@@H](CCCCNC(=O)COCCOCCNC(=O)COCCOCCNC(=O)CC[C@H](NC(=O)CCCCCCCCCCCCCCCCCCC(=O)O)C(=O)O)C(N)=O)C(C)C` (single isomer, unassigned) [Compound 130], the EC50 on GIP receptor [1] is 1 to 10 nM; at GLP-1 receptor [2], over 1000 nM; on GLP-1 receptor [3], 1 to 10 nM; on GIP receptor [4] it was over 1000 nM. The Emax on GIP receptor [1] is 106%; on GLP-1 receptor [3] it was 107%.
For the molecule `CC[C@H](C)[C@H](NC(=O)[C@H](CC(C)C)NC(=O)[C@H](Cc1c[nH]c2ccccc12)NC(=O)[C@H](CCC(N)=O)NC(=O)[C@@H](NC(=O)[C@H](Cc1ccccc1)NC(=O)[C@H](C)NC(=O)[C@H](CCCCNC(=O)COCCOCCNC(=O)COCCOCCNC(=O)CC[C@H](NC(=O)CCCCCCCCCCCCCCCCCCC(=O)O)C(=O)O)NC(=O)[C@H](CCC(N)=O)NC(=O)[C@H](C)NC(=O)[C@@H](NC(=O)[C@H](CCCCN)NC(=O)[C@H](CC(=O)O)NC(=O)[C@H](CC(C)C)NC(=O)C(C)(C)NC(=O)[C@@H](NC(=O)[C@H](CO)NC(=O)[C@H](Cc1ccc(O)cc1)NC(=O)[C@H](CC(=O)O)NC(=O)[C@H](CO)NC(=O)[C@@H](NC(=O)[C@H](Cc1ccccc1)NC(=O)[C@@H](NC(=O)CNC(=O)[C@H](CCC(=O)O)NC(=O)CCNC(=O)C(C)(C)c1cc(N)cc(F)c1)[C@@H](C)O)[C@@H](C)O)[C@@H](C)CC)[C@@H](C)CC)C(C)C)C(=O)N[C@@H](C)C(=O)NCC(=O)NCC(=O)N1CCC[C@H]1C(=O)N[C@@H](CO)C(=O)N[C@@H](CO)C(=O)NCC(=O)N[C@@H](C)C(=O)N1CCC[C@H]1C(=O)N1CCC[C@H]1C(=O)N1CCC[C@H]1C(=O)N[C@@H](CO)C(N)=O` [Compound 133] ({X65-βAla}-EGTFTSDYSI[Aib]LDKIAQK([AEEA-AEEA-γGlu-C20 diacid])AFVQWLIAGGPSSGAPPPS-NH2), the EC50 at GIP receptor [1] was 100 to 1000 nM; on GLP-1 receptor [2], over 1000 nM; at GLP-1 receptor [3], 0.1 to 1 nM; on GIP receptor [4], over 1000 nM. For the same molecule, the Emax at GIP receptor [1] was 107%; at GLP-1 receptor [3], 104%.
For `CC[C@H](C)[C@H](NC(=O)[C@H](CO)NC(=O)[C@H](Cc1ccc(O)cc1)NC(=O)[C@H](CC(=O)O)NC(=O)[C@H](CO)NC(=O)[C@@H](NC(=O)[C@H](Cc1ccccc1)NC(=O)[C@@H](NC(=O)CNC(=O)[C@H](CCC(=O)O)NC(=O)CCNC(=O)[C@@]1(c2ccccc2)CNC(=O)C1)[C@@H](C)O)[C@@H](C)O)C(=O)N[C@@H](Cc1ccc(O)cc1)C(=O)N[C@@H](CC(C)C)C(=O)N[C@@H](CC(=O)O)C(=O)N[C@@H](CCCCN)C(=O)N[C@@H](CCC(N)=O)C(=O)N[C@@H](C)C(=O)N[C@@H](C)C(=O)NC(C)(C)C(=O)N[C@@H](CCC(=O)O)C(=O)N[C@@H](Cc1ccccc1)C(=O)N[C@H](C(=O)N[C@@H](CC(N)=O)C(=O)N[C@@H](Cc1c[nH]c2ccccc12)C(=O)N[C@@H](CC(C)C)C(=O)N[C@@H](CC(C)C)C(=O)N[C@@H](C)C(=O)NCC(=O)NCC(=O)N1CCC[C@H]1C(=O)N[C@@H](CO)C(=O)N[C@@H](CO)C(=O)NCC(=O)N[C@@H](C)C(=O)N1CCC[C@H]1C(=O)N1CCC[C@H]1C(=O)N1CCC[C@H]1C(=O)N[C@@H](CO)C(=O)N[C@@H](CCCCNC(=O)COCCOCCNC(=O)COCCOCCNC(=O)CC[C@H](NC(=O)CCCCCCCCCCCCCCCCCCC(=O)O)C(=O)O)C(N)=O)C(C)C` (single isomer, unassigned) [Compound 125], the EC50 at GIP receptor [1] was 10 to 100 nM; on GLP-1 receptor [2] it was over 1000 nM; on GLP-1 receptor [3] it was 10 to 100 nM; on GIP receptor [4] it was over 1000 nM. Also, the Emax at GIP receptor [1] was 105%; at GLP-1 receptor [3] it was 101%.
As to `CC[C@H](C)[C@H](NC(=O)[C@H](CC(C)C)NC(=O)[C@H](Cc1c[nH]c2ccccc12)NC(=O)[C@H](CCC(N)=O)NC(=O)[C@@H](NC(=O)[C@H](Cc1ccccc1)NC(=O)[C@H](C)NC(=O)[C@H](CCCCNC(=O)COCCOCCNC(=O)COCCOCCNC(=O)CC[C@H](NC(=O)CCCCCCCCCCCCCCCCCCC(=O)O)C(=O)O)NC(=O)[C@H](CCC(N)=O)NC(=O)[C@H](C)NC(=O)[C@@H](NC(=O)[C@H](CCCCN)NC(=O)[C@H](CC(=O)O)NC(=O)[C@H](CC(C)C)NC(=O)C(C)(C)NC(=O)[C@@H](NC(=O)[C@H](CO)NC(=O)[C@H](Cc1ccc(O)cc1)NC(=O)[C@H](CC(=O)O)NC(=O)[C@H](CO)NC(=O)[C@@H](NC(=O)[C@](C)(Cc1ccccc1)NC(=O)[C@@H](NC(=O)CNC(=O)[C@H](CCC(=O)O)NC(=O)CCNC(=O)C1(c2cccnc2)CCCC1)[C@@H](C)O)[C@@H](C)O)[C@@H](C)CC)[C@@H](C)CC)C(C)C)C(=O)N[C@@H](C)C(=O)NCC(=O)NCC(=O)N1CCC[C@H]1C(=O)N[C@@H](CO)C(=O)N[C@@H](CO)C(=O)NCC(=O)N[C@@H](C)C(=O)N1CCC[C@H]1C(=O)N1CCC[C@H]1C(=O)N1CCC[C@H]1C(=O)N[C@@H](CO)C(N)=O` [Compound 234] ({X60-βAla}-EGT[αMeF]TSDYSI[Aib]LDKIAQK([AEEA-AEEA-γGlu-C20 diacid])AFVQWLIAGGPSSGAPPPS-NH2), the EC50 is 0.1 to 1 nM on GIP receptor [1], over 1000 nM on GLP-1 receptor [2], 0.1 to 1 nM at GLP-1 receptor [3] and under 1000 nM at GIP receptor [4]. In addition, the results for the Emax at GIP receptor [1] and at GLP-1 receptor [3] were 112% and 105%, respectively.
